Measurements as given in patent publication US6448032B1, “Human melanocyte stimulating hormone receptor polypeptide and DNA” (priority 1992, dated 2002).
No end group written: not given here.

Key:
MSH receptor [1] = target: T1, MSH receptor (Homo sapiens, UniProt Q01726); assay: Inhibition of 125I-NDP-MSH binding to stable COS-7 cell line harbouring pRC/CMV-11D; conditions: NDP-MSH radioligand competition
T1 construct: This polypeptide constitutes the entire polypeptide of an MSH receptor; expressed in transfected cells; host or cells: COS-7 cells, transient, plasmid pE-11D (pcDNAI)
T1 sequence (Q01726 whole entry): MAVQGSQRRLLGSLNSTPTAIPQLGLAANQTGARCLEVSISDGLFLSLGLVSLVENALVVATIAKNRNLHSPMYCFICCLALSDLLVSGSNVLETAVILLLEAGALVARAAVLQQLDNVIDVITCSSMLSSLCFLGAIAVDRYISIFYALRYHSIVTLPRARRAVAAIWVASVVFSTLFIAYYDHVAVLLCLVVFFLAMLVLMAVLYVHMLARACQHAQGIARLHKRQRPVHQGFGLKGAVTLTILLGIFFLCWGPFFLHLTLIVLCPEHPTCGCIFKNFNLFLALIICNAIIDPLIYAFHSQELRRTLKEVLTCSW
Procedure: COS-7 cells (available from ATCC) were grown in Dulbecco's modified Eagle medium with 8% fetal calf serum and non-essential amino acids (Gibco/BRL, 8400 Helgerman Court, Gaithersburg, Md. 20877, USA) in serum free medium, five hours after transfection, serum containing medium was replaced, and cells were cultivated for 48 hours. At this time selection for the calls stably harbouring the pRC/CMV-11D plasmid was begun by growing the cells in neomycin (0.5 mg/ml) containing medium (selection medium). Selection procedure was continued for two weeks, replacing the selection medium every 4th day. surviving cells were collected and maintained in the selection medium. These cells constitute the stable cell line.
To investigate the binding properties cells were scraped off from the culture flask, centrifuged, resuspended in selection medium, plated on 48 well, and allowed to grow for 24 hours. […] Radioactivity was counted and data analyzed by an iterative, non-linear curve fitting programme suitable for radioligand binding analysis. […]

MSH receptor [2] = target: T1, MSH receptor; assay: Inhibition of 125I-NDP-MSH binding to COS-7 cells transfected with MSH receptor cDNA (pE-11D); conditions: pE-11D transfected COS-7 cells
Procedure: Eighty percent confluent cultures were transfected with 1 μg of pE-11D plasmid DNA and 40 μg lipofectin (BRL, 8400 Helgerman Court, Gaithersburg, Md. 20877, USA) in serum free medium. Five hours after transfection, serum containing medium was replaced, and cells were cultivated for 20 hours. Cells were then scraped off, centrifuged, resuspended in serum containing medium, plated on 48 well plates, and allowed to grow for 24 hours. […] Radioactivity was counted and data analyzed by iterative, non-linear curve fitting programme suitable for radioligand binding analysis (see FIG. 6).

MC-2 receptor = target: T2, MC-2 receptor (Homo sapiens, UniProt P33032); assay: Inhibition of 125I-NDP-MSH binding to COS-7 cells transfected with pE-MC-2; conditions: pE-MC-2 transfected COS-7 cells
T2 construct: expressed in transfected cells; host or cells: COS-7 cells, transient, plasmid pE-MC-2 (pRC/CMV)
T2 sequence (P33032 whole entry): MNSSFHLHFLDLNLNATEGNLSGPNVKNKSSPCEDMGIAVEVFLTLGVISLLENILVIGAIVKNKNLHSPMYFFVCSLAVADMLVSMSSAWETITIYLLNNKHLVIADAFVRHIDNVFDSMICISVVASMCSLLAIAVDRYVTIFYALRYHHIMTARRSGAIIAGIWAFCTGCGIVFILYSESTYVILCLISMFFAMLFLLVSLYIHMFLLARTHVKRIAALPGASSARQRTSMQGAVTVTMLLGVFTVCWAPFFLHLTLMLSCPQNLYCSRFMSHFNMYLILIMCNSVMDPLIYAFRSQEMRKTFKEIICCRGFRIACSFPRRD
Procedure: Eighty percent confluent cultures were transfected with 1 μg of pE-MC-2 plasmid DNA and 40 μg lipofectin (BRL, 8400 Helgerman Court, Gaithersburg, Md. 20877, USA) in serum free medium. Five hours after transfection, serum containing medium was replaced, and cells were cultivated for 20 hours. Cells were then scraped off, centrifuged, resuspended in serum containing medium, plated on 48 well plates, and allowed to grow for 24 hours. […] Radioactivity was counted and data analyzed by iterative, non-linear curve fitting programme suitable for radioligand binding analysis (see FIG. 9).

[3] = 37° C., 2 hours, Ki from IC-50 by Cheng and Prusoff equation, read-out: Ki for inhibiting 125I-NDP-MSH binding

Molecule | binding affinity for the expressed MSH receptor (MSH receptor [1]) | affinity for the expressed MSH receptor (MSH receptor [2]; 125I-NDP-MSH competition) | affinity for the expressed MC-2 receptor (MC-2 receptor; 125I-NDP-MSH competition) | Ki (MSH receptor [2]; [3]) [nM] | Ki (MC-2 receptor; [3]) [nM]
CSCC[C@H](N)C(=O)N[C@@H](CCC(=O)O)C(=O)N[C@@H](Cc1c[nH]cn1)C(=O)N[C@@H](Cc1ccccc1)C(=O)N[C@@H](CCCNC(=N)N)C(=O)N[C@@H](Cc1c[nH]c2ccccc12)C(=O)NCC(=O)O [ACTH (4-10)] | very low binding affinity | – | – | – | –
β-endorphin: non-melanotropic POMC peptide | no affinity | no affinity | no affinity | – | –
SYSMEHFRWGKPVGKKRRPVKVYPNGAEDESAEAFPLEF [ACTH (1-39)] | – | – | – | 0.17 ± 0.037 | 929 ± 389
